Structures are written as SMILES.

What all share (format): cell-based
One assay deals with PDE4A probes. In words: Redistribution of the PDE4A probes (summary). The note with it: compound alone.
Assay [1] addresses T1, HSPDE4A4-EGFP (Homo sapiens, UniProt P27815).
T1 construct: expressed in transfected cells
In words: Spot formation in CHO cells transfected with HSPDE4A4-EGFP. Particulars: for cells with spots: clonal.

The target of assay [2] is T1, HSPDE4A4-EGFP. Description: Dispersal of preformed Rolipram-induced spots, HSPDE4A4-EGFP CHO cells. Particulars: yes/no.
In another assay the target is T2, HSPDE4A1-EGFP (Homo sapiens, UniProt P27815).
T2 construct: the ca. 1.95 kb coding region of HSPDE4A1 (GenBank Acc.no. U97584) is amplified; expressed in transfected cells
Description: Spot dispersal in CHO cells transfected with HSPDE4A1-EGFP. As for the experimental part:
(§1) […] The cells are then fixed with 4% formalin buffer (pH7) for 1 hour, washed with PBS and stained with 1 μM Hoechst 33258 in PBS for 10 minutes at 25° C., then washed twice in PBS. Automated images are collected and analysed for the number of spots per cell as described in Example 2.
as §1

The target in the next assay is T3, HSPDE4A4catD-EGFP (Homo sapiens, UniProt P27815+Q08499).
T3 construct: the 3′-end catalytic region of HSPDE4D isoforms (nucleotides 700-2019 of HSPDE4D3 cDNA); HSPDE4A4 N-terminal fragment (nucleotides 1-1023 of L20965); expressed in transfected cells
An excerpt:
Transiently transfected or stably transfected (non-clonal) cells are allowed to adhere to chambered coverglasses in HAM's F12 medium containing 10% FBS.

T2 sequence (P27815 1-647 isoform P27815-4): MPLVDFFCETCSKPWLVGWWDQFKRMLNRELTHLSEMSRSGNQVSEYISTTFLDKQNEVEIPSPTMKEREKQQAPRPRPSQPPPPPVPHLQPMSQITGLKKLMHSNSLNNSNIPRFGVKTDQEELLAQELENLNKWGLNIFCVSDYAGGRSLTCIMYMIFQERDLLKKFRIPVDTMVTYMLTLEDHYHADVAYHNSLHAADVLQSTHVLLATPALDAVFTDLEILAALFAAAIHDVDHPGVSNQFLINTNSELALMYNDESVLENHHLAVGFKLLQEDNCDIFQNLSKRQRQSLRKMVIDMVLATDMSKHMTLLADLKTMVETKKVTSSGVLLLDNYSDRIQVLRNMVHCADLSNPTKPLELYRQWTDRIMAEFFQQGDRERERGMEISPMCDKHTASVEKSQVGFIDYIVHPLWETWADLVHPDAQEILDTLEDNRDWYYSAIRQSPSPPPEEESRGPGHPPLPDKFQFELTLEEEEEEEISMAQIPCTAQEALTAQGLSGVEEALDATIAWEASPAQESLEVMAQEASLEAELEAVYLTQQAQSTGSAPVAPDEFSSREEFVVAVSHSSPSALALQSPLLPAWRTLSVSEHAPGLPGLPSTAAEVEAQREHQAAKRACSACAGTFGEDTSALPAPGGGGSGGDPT
T1 sequence (P27815 whole entry): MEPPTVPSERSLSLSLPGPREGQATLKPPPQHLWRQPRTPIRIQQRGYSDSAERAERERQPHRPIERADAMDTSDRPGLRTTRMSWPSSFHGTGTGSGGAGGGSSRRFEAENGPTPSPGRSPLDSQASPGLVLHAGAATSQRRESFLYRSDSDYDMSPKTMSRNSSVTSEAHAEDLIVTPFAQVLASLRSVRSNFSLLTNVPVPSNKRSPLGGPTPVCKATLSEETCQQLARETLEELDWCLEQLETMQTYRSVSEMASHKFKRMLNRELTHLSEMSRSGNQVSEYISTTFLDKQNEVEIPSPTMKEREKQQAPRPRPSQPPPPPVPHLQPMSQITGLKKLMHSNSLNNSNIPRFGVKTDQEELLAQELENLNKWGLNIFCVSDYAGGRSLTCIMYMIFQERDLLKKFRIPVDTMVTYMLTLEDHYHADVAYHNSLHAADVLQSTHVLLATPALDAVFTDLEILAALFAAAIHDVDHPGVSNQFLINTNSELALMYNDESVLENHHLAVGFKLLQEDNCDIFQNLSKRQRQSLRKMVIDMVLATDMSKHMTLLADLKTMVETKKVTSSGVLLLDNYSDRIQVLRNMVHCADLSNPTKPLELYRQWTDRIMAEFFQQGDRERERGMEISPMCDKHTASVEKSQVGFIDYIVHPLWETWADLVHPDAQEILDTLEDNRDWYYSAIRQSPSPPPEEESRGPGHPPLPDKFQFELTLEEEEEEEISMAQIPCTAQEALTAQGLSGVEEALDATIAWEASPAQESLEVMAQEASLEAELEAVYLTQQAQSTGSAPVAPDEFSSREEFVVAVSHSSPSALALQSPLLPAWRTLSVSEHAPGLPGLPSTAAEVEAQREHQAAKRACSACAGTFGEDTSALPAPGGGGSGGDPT
T3 sequence (P27815+Q08499 fused with the stated changes, form open): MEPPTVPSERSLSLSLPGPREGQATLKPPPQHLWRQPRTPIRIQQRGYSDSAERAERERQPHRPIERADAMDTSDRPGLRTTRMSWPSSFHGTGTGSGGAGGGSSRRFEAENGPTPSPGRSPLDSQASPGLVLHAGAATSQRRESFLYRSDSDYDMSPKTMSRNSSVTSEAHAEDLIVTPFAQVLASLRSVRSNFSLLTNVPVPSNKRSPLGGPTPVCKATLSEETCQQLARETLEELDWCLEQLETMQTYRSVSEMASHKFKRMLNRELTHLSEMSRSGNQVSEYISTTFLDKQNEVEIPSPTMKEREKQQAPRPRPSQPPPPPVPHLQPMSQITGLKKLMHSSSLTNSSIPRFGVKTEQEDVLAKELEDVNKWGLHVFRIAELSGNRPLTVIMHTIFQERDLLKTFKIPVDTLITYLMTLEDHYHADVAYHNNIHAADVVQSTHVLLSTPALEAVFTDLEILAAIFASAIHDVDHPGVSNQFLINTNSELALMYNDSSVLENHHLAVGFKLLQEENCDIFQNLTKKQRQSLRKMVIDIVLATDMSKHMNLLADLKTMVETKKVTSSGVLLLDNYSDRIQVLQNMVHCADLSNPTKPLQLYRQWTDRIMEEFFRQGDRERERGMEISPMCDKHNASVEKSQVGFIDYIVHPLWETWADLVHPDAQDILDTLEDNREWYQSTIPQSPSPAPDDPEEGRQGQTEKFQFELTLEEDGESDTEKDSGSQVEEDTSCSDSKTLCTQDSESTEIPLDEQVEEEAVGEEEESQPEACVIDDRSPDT

Broadly, the EC50 is the midpoint of the concentration-response curve. For `O=c1c2cccnc2n(-c2cccc([N+](=O)[O-])c2)c(=O)n1Cc1ccncc1` [RS25344], in the assay with PDE4A probes, the “redistribution of the PDE4A probes” value is reported as “indistinguishable from those induced by Rolipram treatment”. In addition, the cells with spots result was “about 40%” on HSPDE4A4-EGFP [1] (0.03 μM RS25344, 24.5 hours); “approximately 40%” on HSPDE4A4-EGFP [1] (0.03 μM RS25344, 24.5 hours, listed as RS 25344); “more than 95%” on HSPDE4A4-EGFP [1] (1 μM RS25344, 24.5 hours). Further, the EC50 was 17 nM on HSPDE4A4-EGFP [1] (clonal CHO, 23.5 hours, 4-parameter Hill fit, read-out: EC50 spot formation (spots per cell)) and 5 nM at HSPDE4A1-EGFP (clonal CHO, 23.5 hours, estimated). Besides, the “Formation of PDE4A4 spots” value at HSPDE4A4-EGFP [1] (yes/no) is given as “yes”. Also, the “Removal of Rolipram-induced PDE4A4-spots” value on HSPDE4A4-EGFP [2] is reported as “no”. In addition, the “dispersal of PDE4A1 spots (in words)” value on HSPDE4A1-EGFP (Rolipram 2 micromolar 2 hours, others over the ranges tested) was “reduce PDE4A1 spot numbers”. Besides, the “Removal of PDE4A1 spots” value on HSPDE4A1-EGFP (yes/no) is recorded as “yes”. For the same compound, on HSPDE4A4catD-EGFP (1 μM RS25344 32 hours, stably transfected, 10 μM Rolipram 26 hours, transiently transfected), the “spot formation (in words)” value is “Many cells in this stable population respond by forming pairs of bright spots”. Further, at HSPDE4A4catD-EGFP (after addition of 1 μM RS25344), the “time until spots begin to be visible” value was “about 6 hours”.
